# Patent US20220079934A1, “CRENOLANIB FOR TREATING PAIN” (Arog Pharmaceuticals, Inc., priority 2020, published 2022)
# How the values were obtained:
# [1] = molecular target: T1, wildtype TRKC (Homo sapiens, UniProt Q16288); test: Reaction Biology HotSpot Kinase assay (direct enzyme phosphorylation), TRKC; format: biochemical; conditions: 33P-ATP, 120 minutes at room temperature, filter-binding
# T1 construct: purchased Reaction Biology
# Procedure: (§1) Direct enzyme phosphorylation assay. The Reaction Biology HotSpot Kinase assay was used to screen the present invention against a panel of TRKA, TRKB, and TRKC kinases. For assays of all kinases, the TRK enzyme was prepared in base reaction buffer (20 mM Hepes (pH 7.5), 10 mM MgCl2, 1 mM EGTA, 0.02% Brij35, 0.02 mg/ml BSA, 0.1 mM Na3VO4, 2 mM DTT, 1% DMSO). The reaction was initiated by the addition of 33P-ATP (10 μCi/μL) into the mixture. The reaction mixture was incubated for 120 minutes at room temperature. Radioactivity was detected by filter-binding method, and kinase activity expressed as the percent remaining kinase activity in test samples compared to vehicle reactions. IC50 values and curve fitting were obtained using Prism (GraphPad Software). The activity of the besylate salt of the present invention was determined using a direct enzymatic Reaction Biology HotSpot Kinase assay. All IC50 values are presented in nanomolar concentration. In the direct enzymatic measurement assay, the IC50 of the besylate salt of the current invention against the various TRK kinases is shown in Table 1.
# [2] = molecular target: T2, wildtype TRKB (Homo sapiens, UniProt Q16620); test: Reaction Biology HotSpot Kinase assay (direct enzyme phosphorylation), TRKB; format: biochemical; conditions: 33P-ATP, 120 minutes at room temperature, filter-binding
# T2 construct: purchased Reaction Biology
# T2 sequence (Q16620 32-822): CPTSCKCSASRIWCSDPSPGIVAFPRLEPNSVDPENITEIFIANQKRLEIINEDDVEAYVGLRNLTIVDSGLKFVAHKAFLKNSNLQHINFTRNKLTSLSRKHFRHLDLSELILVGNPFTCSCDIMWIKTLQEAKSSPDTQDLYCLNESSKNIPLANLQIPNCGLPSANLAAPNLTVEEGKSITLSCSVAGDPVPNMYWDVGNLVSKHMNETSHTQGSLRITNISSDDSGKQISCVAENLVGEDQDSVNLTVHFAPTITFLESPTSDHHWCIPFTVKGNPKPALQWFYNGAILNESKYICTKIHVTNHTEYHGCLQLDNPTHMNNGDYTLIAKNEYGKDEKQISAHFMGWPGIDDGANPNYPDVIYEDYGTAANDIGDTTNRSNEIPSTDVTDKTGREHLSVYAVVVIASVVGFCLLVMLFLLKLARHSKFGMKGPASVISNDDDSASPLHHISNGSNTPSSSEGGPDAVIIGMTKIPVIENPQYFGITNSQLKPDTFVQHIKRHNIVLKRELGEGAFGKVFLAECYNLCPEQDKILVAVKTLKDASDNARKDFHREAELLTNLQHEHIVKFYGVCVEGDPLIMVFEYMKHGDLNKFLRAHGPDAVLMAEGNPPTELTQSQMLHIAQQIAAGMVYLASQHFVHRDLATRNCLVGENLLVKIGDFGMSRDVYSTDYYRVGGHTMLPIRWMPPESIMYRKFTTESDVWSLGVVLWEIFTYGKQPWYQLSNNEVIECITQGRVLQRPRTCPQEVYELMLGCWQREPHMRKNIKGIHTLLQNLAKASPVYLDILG
# Procedure: as §1
# [3] = molecular target: T3, wildtype TRKA (Homo sapiens, UniProt P04629); test: Reaction Biology HotSpot Kinase assay (direct enzyme phosphorylation), TRKA; format: biochemical; conditions: 33P-ATP, 120 minutes at room temperature, filter-binding
# T3 construct: purchased Reaction Biology
# T3 sequence (P04629 33-796): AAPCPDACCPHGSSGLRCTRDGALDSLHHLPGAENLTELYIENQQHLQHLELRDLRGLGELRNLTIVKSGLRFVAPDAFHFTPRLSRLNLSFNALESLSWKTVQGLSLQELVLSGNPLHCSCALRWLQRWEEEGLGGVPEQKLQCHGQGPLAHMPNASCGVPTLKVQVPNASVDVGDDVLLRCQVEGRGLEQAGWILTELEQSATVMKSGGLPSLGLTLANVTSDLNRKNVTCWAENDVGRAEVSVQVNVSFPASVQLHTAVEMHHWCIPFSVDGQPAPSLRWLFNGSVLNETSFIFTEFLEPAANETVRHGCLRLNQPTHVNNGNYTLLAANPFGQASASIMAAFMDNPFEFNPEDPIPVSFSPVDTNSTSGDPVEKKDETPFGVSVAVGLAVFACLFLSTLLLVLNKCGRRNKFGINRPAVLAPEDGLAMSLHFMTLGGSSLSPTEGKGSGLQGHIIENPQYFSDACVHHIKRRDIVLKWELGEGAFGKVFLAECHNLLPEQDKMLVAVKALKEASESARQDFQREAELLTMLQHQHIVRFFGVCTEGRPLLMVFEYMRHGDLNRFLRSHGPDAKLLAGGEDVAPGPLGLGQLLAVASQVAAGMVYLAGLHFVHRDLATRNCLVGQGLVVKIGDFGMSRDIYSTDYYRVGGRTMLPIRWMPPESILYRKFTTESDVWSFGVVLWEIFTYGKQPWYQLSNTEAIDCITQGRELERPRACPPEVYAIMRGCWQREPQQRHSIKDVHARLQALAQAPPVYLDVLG
# Procedure: as §1
# [4] = osteoarthritis patients, lowered dose with risk minimization strategy; 22 patients; cited from earlier work
# T1 sequence (Q16288 32-839): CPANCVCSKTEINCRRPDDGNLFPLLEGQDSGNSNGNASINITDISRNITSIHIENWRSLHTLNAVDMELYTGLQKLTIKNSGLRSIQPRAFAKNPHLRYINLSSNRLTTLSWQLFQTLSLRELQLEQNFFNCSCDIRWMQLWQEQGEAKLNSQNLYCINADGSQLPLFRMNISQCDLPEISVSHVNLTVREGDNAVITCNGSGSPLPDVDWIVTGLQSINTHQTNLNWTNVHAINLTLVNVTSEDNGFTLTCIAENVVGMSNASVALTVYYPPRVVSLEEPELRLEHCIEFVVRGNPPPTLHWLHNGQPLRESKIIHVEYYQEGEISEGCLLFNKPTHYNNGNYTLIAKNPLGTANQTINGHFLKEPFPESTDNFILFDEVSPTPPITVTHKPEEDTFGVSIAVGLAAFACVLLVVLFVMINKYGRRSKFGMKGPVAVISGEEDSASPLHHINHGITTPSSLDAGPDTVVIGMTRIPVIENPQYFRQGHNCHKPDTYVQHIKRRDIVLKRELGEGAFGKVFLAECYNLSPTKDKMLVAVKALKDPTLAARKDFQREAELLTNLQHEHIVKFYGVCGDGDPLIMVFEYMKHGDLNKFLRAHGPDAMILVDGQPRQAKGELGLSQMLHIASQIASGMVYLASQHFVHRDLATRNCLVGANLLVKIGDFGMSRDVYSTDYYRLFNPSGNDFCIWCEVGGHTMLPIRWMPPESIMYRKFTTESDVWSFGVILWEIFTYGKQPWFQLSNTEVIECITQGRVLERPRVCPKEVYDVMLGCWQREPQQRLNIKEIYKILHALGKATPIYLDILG
IC50 [1] [nM],IC50 [2] [nM],IC50 [3] [nM],Compound,patients treated who required knee or joint replacement [4] [%]
1.68,77.7,31,CC1(COc2ccc3c(c2)ncn3-c2ccc3cccc(N4CCC(N)CC4)c3n2)COC1 [crenolanib besylate],
,,,tanezumab,9.4
